Experimental data: US11717509B2, “Blend containing carbamate compound for prevention, mitigation, or treatment of schizophrenia” (SK BIOPHARMACEUTICALS CO., LTD., priority 2017, dated 2023)

Tested on: animal model in which schizophrenia-like symptoms were induced by treatment with dizocilpine (MK-801)
Test: Social interaction animal behavior test in rats with schizophrenia-like symptoms induced by dizocilpine (MK-801)
Format: in vivo, rat (Wistar, male)
Conditions: for Social interaction (Mean ± SEM) = total time of active social interactions of sniffing, grooming, licking, mounting and crawling: male Wistar rats in pairs, 5 min observation, dizocilpine 0.1 mg/kg sc 4 h before, aripiprazole 0.003 mg/kg po and/or test compound 3 mg/kg po 1 h before, 20 pairs; for total time average of active social interactions: mean±SEM, aripiprazole 0.003 mg/kg and/or test compound 3 mg/kg po; for total time average of active social interactions / Recovery rate compared to negative control: dizocilpine 0.1 mg/kg sc; for Statistical significance compared to negative control (P < 0.05?) / Statistical significance compared to positive control (P < 0.05?): one-way ANOVA, Dunnett's test; for Statistical significance compared to negative control (P < 0.05?): negative control = dizocilpine only; for Statistical significance compared to negative control (P < 0.05?) / Statistical significance compared to positive control (P < 0.05?) / Recovery rate compared to negative control: aripiprazole 0.003 mg/kg po and/or test compound 3 mg/kg po; for Statistical significance compared to positive control (P < 0.05?): positive control = vehicle group; for Recovery rate compared to negative control: versus dizocilpine-only negative control and vehicle positive control
Excerpt: The antipsychotic activity of the carbamate compounds of Formula 1 and aripiprazole against schizophrenia can be tested through social interaction animal behavior tests used in drug development for the negative symptoms of schizophrenia (Neill J C, Grayson B, Kiss B, Gyertyán I, Ferguson P, Adham N, Effects of cariprazine, a novel antipsychotic, on cognitive deficit and negative symptoms in a rodent model of schizophrenia symptomatology, Eur Neuropsychopharmacol. 2016 January; 26(1):3-14). […] Dizocilpine (MK-801) is an N-methyl-D-aspartate (NMDA) receptor inhibitor. In the dizocilpine-induced (MK-801-induced) social interaction animal behavior test, schizophrenia-like symptoms can be induced by administration of dizocilpine (Rung J P, Carlsson A, Ryden Markinhuhta K, Carlsson M L, (+)-MK-801 induced social withdrawal in rats; a model for negative symptoms of schizophrenia. Prog Neuropsychopharmacol Biol Psychiatry. 2005 June; 29(5):827-32). Aripiprazole, known as an atypical antipsychotic drug, inhibits schizophrenia-like symptoms in proportion to the dose of dizocilpine (Deiana S, Watanabe A, Yamasaki Y, Amada N, Kikuchi T, Stott C, Riedel G, MK-801-induced deficits in social recognition in rats: reversal by aripiprazole, but not olanzapine, risperidone, or cannabidiol. Behav Pharmacol. 2015 December; 26 (8 Spec No): 748-65).
Male rats (Wistar, 4 weeks old, Orient Bio Co., Ltd.) were purchased, divided into 2 groups in an animal breeding room and acclimatized for more than 1 week on separate shelves. The experimental animals were housed and maintained in accordance with the Laboratory Animal Care Standards of the Institutional Animal Care and Use Committee (IACUC) under conditions of light-and-darkness cycle of 12 hours, a temperature of 22 to 25° C., a relative humidity of 40-60% and free access to food and water.
Thus, an animal model is used in which schizophrenia-like symptoms can be induced by treatment of dizocilpine, an N-methyl-D-aspartate (NMDA) receptor inhibitor.
Dizocilpine (purchased from Sigma) was newly prepared by dissolving it in physiological saline used as a vehicle, and 4 hours before the experiment, a 0.1 mg/kg dose was administered subcutaneously in a volume of 1 ml per 1 kg of body weight of the rat.
Aripiprazole and the test compound were newly prepared by dissolving them in 30% polyethylene glycol 400 (Sigma) used as a vehicle. One hour before the experiment, a 0.003 mg/kg dose of aripiprazole and a 3 mg/kg dose of the test compound were administered orally in a volume of 1 ml per 1 kg of body weight of the rat.
The male rats were placed in the same observation box in pairs, allowing 1:1 interaction, and then the total time of sniffing, grooming, licking, mounting and crawling under or over the other rat which can be considered as active social interactions was measured for 5 minutes, and social interaction was evaluated based on that.
All data are expressed as mean±SEM. Statistical analysis of the total time of active social interactions between groups was performed using the GraphPad Prism ver. 5.04 program, and analyzed by one-way ANOVA (one-way analysis of variance) and Dunnett's multiple comparison test.
The recovery rate was calculated as follows.

| Structure (SMILES) | Social interaction (Mean ± SEM) = total time of active social interactions of sniffing, grooming, licking, mounting and crawling | total time average of active social interactions | Statistical significance compared to negative control (P < 0.05?) | Statistical significance compared to negative control (P < 0.05?) (listed as aripiprazole) | Statistical significance compared to positive control (P < 0.05?) | Statistical significance compared to positive control (P < 0.05?) (listed as aripiprazole) | Recovery rate compared to negative control | Recovery rate compared to negative control (listed as aripiprazole) | Statistical significance compared to negative control (P < 0.05?) (listed as test compound) | Statistical significance compared to positive control (P < 0.05?) (listed as test compound) | Recovery rate compared to negative control (listed as test compound) |
| --- | --- | --- | --- | --- | --- | --- | --- | --- | --- | --- | --- |
| O=C1CCc2ccc(OCCCCN3CCN(c4cccc(Cl)c4Cl)CC3)cc2N1 [Aripiprazole, 7-{4-[4-(2,3-dichlorophenyl)piperazin-1-yl]butoxy}-3,4-dihydroquinolin-2(1H)-one] | 57.52 ± 3.04 s | 57.52 ± 3.04 s | Not significant | no statistically significant difference | Significant | statistically significant difference | 23.2% | 23.2% | – | – | – |
| C[C@]12N[C@H](Cc3ccccc31)c1ccccc12 [Dizocilpine] | 53.86 ± 2.90 s | 53.86 ± 2.90 s | – | – | Significant | – | 0.0% | – | – | – | – |
| NC(=O)O[C@@H](Cn1ncnn1)c1ccccc1Cl [Test compound, Carbamic acid (R)-1-(2-chlorophenyl)-2-tetrazol-2-yl-ethyl ester] | 56.78 ± 2.19 s | 56.78 ± 2.19 s | Not significant | – | Significant | – | 18.5% | – | no statistically significant difference | statistically significant difference | 18.5% |
